In article PMC6271529, “Studies on the Anticonvulsant Activity and Influence on GABA-ergic Neurotransmission of 1,2,4-Triazole-3-thione-Based Compounds” (Molecules, 2014):
Read-outs that look alike come from different tables or passages of the source.

How the values were obtained:
[1] = tested on: benzodiazepine (BDZ)-binding sites; experiment: Radioligand binding assay, [3H]flunitrazepam, rat cerebral cortex; settings: compound 1 × 10^−6 M;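 note: low percentages indicate weak binding of the compound to the site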
Description: (§1) Binding experiments were conducted in 96-well microplates in a total volume of 200 μL of appropriate buffer. The reaction mixture included 50 μL solution of test compound, 50 μL of radioligand, and […] the tissue suspension. Rat cerebral cortex was used for each receptor. The radioactivity was measured in MicroBeta TriLux 1450-liquid scintillation counter (PerkinElmer, Waltham, MA, USA). Radioligand binding data were analyzed using iterative curve fitting routines (GraphPAD/Prism, Version 3.0, San Diego, CA, USA). Ki values were calculated from the Cheng and Prusoff equation [36].

[2] = tested on: maximal electroshock-induced seizures; experiment: Maximal electroshock-induced seizure (MES) test in mice; format: in vivo, mouse; settings: for responders at 300 mg/kg / ED50: Mus musculus, ip; for responders at 300 mg/kg: read-out: percent of animals protected against MES-induced seizures; for ED50: read-out: ED50 ± S.E. (MES test); for PI (TD50/ED50): protective index
Description: Additionally, all efforts were made to minimize animal suffering and to use only the number of animals necessary to produce reliable scientific data.
In the initial stage of the study, groups of eight mice were supplied with the compounds (administered intraperitoneally) in a dose of 300 mg/kg and then exposed to electrical impulse at fixed intervals (15, 30, 60, 120 min).
Each mouse was used only once.
Fresh drug solutions were prepared on each day of experimentation and administered at 15, 30, 60 and 120 min. before the initiation of maximal electroconvulsions. Electroconvulsions were produced by a current (0.2 s stimulus duration; 500 V, 50 Hz, fixed current intensity of 25 mA) delivered via ear-clip electrodes by a Rodent Shocker generator (constant-current stimulator Type 221, Hugo Sachs Elektronik, Freiburg, Germany). The criterion for the occurrence of seizure activity was the tonic hind limb extension. The animals were administered with a constant dose of 300 mg/kg of each of the examined compounds and were subjected to MES-induced seizures. […] The animals were administered with different doses of the tested compounds so as to obtain a variable percentage of protection against maximal electroconvulsions, allowing the construction of dose-response relationship lines for each examined compound administered i.p. at various pretreatment times, according to Litchfield and Wilcoxon. Each ED50 value represents the dose of the studied compounds that is required to protect 50% of the animals tested against MES-induced seizures.

GABAA receptors = experiment: Radioligand binding assay, [3H]muscimol, rat cerebral cortex; settings: compound 1 × 10^−6 M, [3H]muscimol, rat cerebral cortex;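 note: low percentages indicate weak binding of the compound to the receptor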
Description: as §1, with “The radioactivity was measured in MicroBeta TriLux 1450-liquid scintillation counter (PerkinElmer, Waltham, MA, USA).” left out

[3] = 300 mg/kg i.p., pretreatment time 15 min, mice
[4] = 300 mg/kg i.p., pretreatment time 30 min, mice
[5] = 300 mg/kg i.p., pretreatment time 60 min, mice
[6] = 300 mg/kg i.p., pretreatment time 120 min, mice
[7] = 0.25 h, 300 mg/kg i.p., pretreatment time 15 min, mice
[8] = 0.5 h, 300 mg/kg i.p., pretreatment time 30 min, mice
[9] = 1 h, 300 mg/kg i.p., pretreatment time 60 min, mice
[10] = 2 h, 300 mg/kg i.p., pretreatment time 120 min, mice

| SMILES | Percent of Specific Binding, BDZ [1] [%] | p/t, number of animals protected against MES-induced seizures / number tested [2, 3] | p/t, number of animals protected against MES-induced seizures / number tested [2, 4] | p/t, number of animals protected against MES-induced seizures / number tested [2, 5] | p/t, number of animals protected against MES-induced seizures / number tested [2, 6] | responders at 300 mg/kg [2, 7] [%] | responders at 300 mg/kg [2, 8] [%] | responders at 300 mg/kg [2, 9] [%] | responders at 300 mg/kg [2, 10] [%] | melting point [°C] | further results |
| --- | --- | --- | --- | --- | --- | --- | --- | --- | --- | --- | --- |
| S=c1[nH]nc(-c2cccc(Cl)c2)n1-c1ccccc1Br [Compound 5a, 4-(2-Bromophenyl)-5-(3-chlorophenyl)-2,4-dihydro-3H-1,2,4-triazole-3-thione] | 12 | 0/8 | 0/8 | 1/8 | 1/8 | 0 | 0 | 12.5 | 12.5 |  | Percent of Specific Binding, GABAA (GABAA receptors): 2% |
| S=c1[nH]nc(-c2ccc(Cl)cc2)n1-c1ccc(Cl)cc1Cl [Compound 14a, 5-(4-Chlorophenyl)-4-(2,4-dichlorophenyl)-2,4-dihydro-3H-1,2,4-triazole-3-thione] |  |  |  |  |  |  |  |  |  | 238 to 240 | acute adverse effects at the screening dose ([2]; 300 mg/kg i.p., mice, protective effect in MES could not be established): acute adverse effects |
| S=c1[nH]nc(-c2ccc(Cl)cc2)n1-c1ccc(Br)cc1 [Compound 16a, 4-(4-Bromophenyl)-5-(4-chlorophenyl)-2,4-dihydro-3H-1,2,4-triazole-3-thione] | 24 | 5/8 | 7/8 | 8/8 | 8/8 | 62.5 | 87.5 | 100 | 100 |  | ED50 ([2]; pretreatment time 15 min, mice): 272 ± 21.4 mg/kg; ED50 ([2]; pretreatment time 30 min, mice): 182 ± 44.3 mg/kg; ED50 ([2]; pretreatment time 60 min, mice): 153 ± 23.5 mg/kg; ED50 ([2]; pretreatment time 120 min, mice): 141 ± 25.1 mg/kg; time to peak of the anticonvulsant action ([2]; after i.p. administration, MES, mice): 120 min; PI (TD50/ED50) ([2]; chimney TD50 / MES ED50, pretreatment time 15 min): 1.6; PI (TD50/ED50) ([2]; chimney TD50 / MES ED50, pretreatment time 30 min): 2.6; PI (TD50/ED50) ([2]; chimney TD50 / MES ED50, pretreatment time 60 min): 3.0; PI (TD50/ED50) ([2]; chimney TD50 / MES ED50, pretreatment time 120 min): 2.9; onset of action ([2]; significant protection as early as 15 min after parenteral administration, MES, mice): quick onset of action; Percent of Specific Binding, GABAA (GABAA receptors): 17% |
| CCN(CC)c1ccc(-n2c(-c3ccc(Cl)cc3)n[nH]c2=S)cc1 [Compound 18a, 5-(4-Chlorophenyl)-4-[4-(diethylamino)phenyl]-2,4-dihydro-3H-1,2,4-triazole-3-thione] |  | 0/8 | 0/8 | 1/8 | 0/8 | 0 | 0 | 12.5 | 0 | 264 to 266 |  |
| S=c1n(CN2CCOCC2)nc(-c2ccc(Cl)cc2)n1-c1ccccc1Br [Compound 25a, 4-(2-Bromophenyl)-5-(4-chlorophenyl)-2-(morpholin-4-ylmethyl)-2,4-dihydro-3H-1,2,4-triazole-3-thione] |  | 0/8 | 0/8 | 0/8 | 0/8 | 0 | 0 | 0 | 0 | 180 to 181 |  |
| S=c1n(CN2CCN(c3ccccc3)CC2)nc(-c2ccc(Cl)cc2)n1-c1ccccc1Br [Compound 26a, 4-(2-Bromophenyl)-5-(4-chlorophenyl)-2-[(4-phenylpiperazin-1-yl)methyl]-2,4-dihydro-3H-1,2,4-triazole-3-thione] |  | 0/8 | 0/8 | 0/8 | 0/8 | 0 | 0 | 0 | 0 | 140 to 142 |  |
| Fc1ccc(N2CCN(Cn3nc(-c4ccc(Cl)cc4)n(-c4ccccc4Br)c3=S)CC2)cc1 [Compound 27a, 4-(2-Bromophenyl)-5-(4-chlorophenyl)-2-{[4-(4-fluorophenyl)piperazin-1-yl]methyl}-2,4-dihydro-3H-1,2,4-triazole-3-thione] |  | 0/8 | 0/8 | 0/8 | 0/8 | 0 | 0 | 0 | 0 | 168 to 170 |  |
| S=c1n(CN2CCN(c3ccccc3)CC2)nc(-c2ccc(Cl)cc2)n1-c1ccc(Br)cc1 [Compound 29a, 4-(4-Bromophenyl)-5-(4-chlorophenyl)-2-[(4-phenylpiperazin-1-yl)methyl]-2,4-dihydro-3H-1,2,4-triazole-3-thione] |  | 0/8 | 0/8 | 0/8 | 0/8 | 0 | 0 | 0 | 0 | 178 to 180 |  |
| Fc1ccc(N2CCN(Cn3nc(-c4ccc(Cl)cc4)n(-c4ccc(Br)cc4)c3=S)CC2)cc1 [Compound 30a, 4-(4-Bromophenyl)-5-(4-chlorophenyl)-2-{[4-(4-fluorophenyl)piperazin-1-yl]methyl}-2,4-dihydro-3H-1,2,4-triazole-3-thione] |  | 0/8 | 0/8 | 0/8 | 0/8 | 0 | 0 | 0 | 0 | 156 to 158 |  |
| CN1C(=O)CN=C(c2ccccc2)c2cc(Cl)ccc21 [Diazepam, reference compound] | 83 |  |  |  |  |  |  |  |  |  |  |
| NCCCC(=O)O [GABA, γ-aminobutyric acid] |  |  |  |  |  |  |  |  |  |  | Percent of Specific Binding, GABAA (GABAA receptors): 82% |
| Cc1ccc(-c2nc3ccc(C)cn3c2CC(=O)N(C)C)cc1 [Zolpidem, reference compound] | 73 |  |  |  |  |  |  |  |  |  |  |
